In the supplement of paper PMC10307832:

Legend:
Test in all cases: relative viability (nuclei count vs DMSO), 5 days (fraction); higher = more cells survive
LCLC-97TM1 = tested on: LCLC-97TM1
How it was run: (§1)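 Relative viability divides the nuclei count in treated wells by that in vehicle wells. Lung cancer cell lines were seeded in 1536-well plates, dosed by pin tool the next day, and fixed and stained after 5 days in one step with final 0.05% Triton X-100, 1% formaldehyde and 1 ug/ml Hoechst. Dosing was a single drug or a fixed anchor-drug dose plus five library-drug doses (not always all listed) in √10 steps, and values are medians of duplicate plates imaged at 4×.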

NCI-H23 = tested on: NCI-H23
How it was run: as §1

NCI-H441 = tested on: NCI-H441
How it was run: as §1

LU99A = tested on: LU99A
How it was run: as §1

NCI-H322M = tested on: NCI-H322M
How it was run: as §1

NCI-H460 = tested on: NCI-H460
How it was run: as §1

LOU-NH91 = tested on: LOU-NH91
How it was run: as §1

NCI-H2126 = tested on: NCI-H2126
How it was run: as §1

NCI-H1915 = tested on: NCI-H1915
How it was run: as §1

PC-3 [JPC-3] = tested on: PC-3 [JPC-3]
How it was run: as §1

NCI-H1755 = tested on: NCI-H1755
How it was run: as §1

BEN = tested on: BEN
How it was run: as §1

HARA = tested on: HARA
How it was run: as §1

NCI-H1395 = tested on: NCI-H1395
How it was run: as §1

NCI-H2170 = tested on: NCI-H2170
How it was run: as §1

NCI-H1944 = tested on: NCI-H1944
How it was run: as §1

NCI-H650 = tested on: NCI-H650
How it was run: as §1

A-427 = tested on: A-427
How it was run: as §1

SK-LU-1 = tested on: SK-LU-1
How it was run: as §1

NCI-H1793 = tested on: NCI-H1793
How it was run: as §1

NCI-H2023 = tested on: NCI-H2023
How it was run: as §1

NCI-H1666 = tested on: NCI-H1666
How it was run: as §1

LXF-289 = tested on: LXF-289
How it was run: as §1

Question: For `Cc1cnc(-c2cnc(NCCNc3ccc(C#N)cn3)nc2-c2ccc(Cl)cc2Cl)[nH]1` + N=C(N)NC(=N)NCCc1ccccc1 [Phenformin] (partner 250 µM), which relative viability (LCLC-97TM1; first compound 0.08 µM) is on record?
Answer: 0.481

Question: What about the relative viability (LCLC-97TM1; first compound 0.8 µM) of the same compound?
Answer: 0.535

Question: What about the relative viability (LCLC-97TM1; first compound 2.53 µM) of the same compound?
Answer: 0.462

Question: What about the relative viability (NCI-H23; first compound 0.08 µM) of the same compound?
Answer: 0.836

Question: And the relative viability (NCI-H23; first compound 0.253 µM)?
Answer: 0.69

Question: And the relative viability (NCI-H23; first compound 0.8 µM)?
Answer: 0.742

Question: And the relative viability (NCI-H23; first compound 2.53 µM)?
Answer: 0.782

Question: What about the relative viability (NCI-H441; first compound 0.08 µM) of the same compound?
Answer: 0.841

Question: And the relative viability (NCI-H441; first compound 0.253 µM)?
Answer: 0.756

Question: And the relative viability (NCI-H441; first compound 0.8 µM)?
Answer: 0.714

Question: And the relative viability (NCI-H441; first compound 2.53 µM)?
Answer: 0.864

Question: What about the relative viability (LU99A; first compound 0.08 µM) of the same compound?
Answer: 0.972

Question: What about the relative viability (LU99A; first compound 0.253 µM) of the same compound?
Answer: 0.769

Question: And the relative viability (LU99A; first compound 0.8 µM)?
Answer: 0.962

Question: And the relative viability (LU99A; first compound 2.53 µM)?
Answer: 0.752

Question: What about the relative viability (NCI-H322M; first compound 0.08 µM) of the same compound?
Answer: 0.815

Question: And the relative viability (NCI-H322M; first compound 0.253 µM)?
Answer: 0.725

Question: What about the relative viability (NCI-H322M; first compound 0.8 µM) of the same compound?
Answer: 0.753

Question: What about the relative viability (NCI-H322M; first compound 2.53 µM) of the same compound?
Answer: 0.931

Question: What about the relative viability (NCI-H460; first compound 0.08 µM) of the same compound?
Answer: 0.551

Question: What about the relative viability (NCI-H460; first compound 0.253 µM) of the same compound?
Answer: 0.452

Question: And the relative viability (NCI-H460; first compound 0.8 µM)?
Answer: 0.513

Question: What about the relative viability (NCI-H460; first compound 2.53 µM) of the same compound?
Answer: 0.41

Question: What about the relative viability (LOU-NH91; first compound 0.08 µM) of the same compound?
Answer: 0.769

Question: What about the relative viability (LOU-NH91; first compound 0.253 µM) of the same compound?
Answer: 0.674

Question: And the relative viability (LOU-NH91; first compound 0.8 µM)?
Answer: 0.756

Question: And the relative viability (LOU-NH91; first compound 2.53 µM)?
Answer: 0.567

Question: What about the relative viability (NCI-H2126; first compound 0.08 µM) of the same compound?
Answer: 0.526

Question: And the relative viability (NCI-H2126; first compound 0.253 µM)?
Answer: 0.533

Question: What about the relative viability (NCI-H2126; first compound 0.8 µM) of the same compound?
Answer: 0.506

Question: What about the relative viability (NCI-H2126; first compound 2.53 µM) of the same compound?
Answer: 0.567

Question: What about the relative viability (NCI-H1915; first compound 0.08 µM) of the same compound?
Answer: 0.378

Question: And the relative viability (NCI-H1915; first compound 0.253 µM)?
Answer: 0.346

Question: And the relative viability (NCI-H1915; first compound 0.8 µM)?
Answer: 0.356

Question: What about the relative viability (NCI-H1915; first compound 2.53 µM) of the same compound?
Answer: 0.389

Question: And the relative viability (PC-3 [JPC-3]; first compound 0.08 µM)?
Answer: 0.478

Question: And the relative viability (PC-3 [JPC-3]; first compound 0.253 µM)?
Answer: 0.474

Question: What about the relative viability (PC-3 [JPC-3]; first compound 0.8 µM) of the same compound?
Answer: 0.508

Question: And the relative viability (PC-3 [JPC-3]; first compound 2.53 µM)?
Answer: 0.473

Question: And the relative viability (NCI-H1755; first compound 0.08 µM)?
Answer: 0.633

Question: And the relative viability (NCI-H1755; first compound 0.253 µM)?
Answer: 0.604

Question: What about the relative viability (NCI-H1755; first compound 0.8 µM) of the same compound?
Answer: 0.634

Question: What about the relative viability (NCI-H1755; first compound 2.53 µM) of the same compound?
Answer: 0.572

Question: What about the relative viability (BEN; first compound 0.08 µM) of the same compound?
Answer: 0.232

Question: What about the relative viability (BEN; first compound 0.253 µM) of the same compound?
Answer: 0.269

Question: What about the relative viability (BEN; first compound 0.8 µM) of the same compound?
Answer: 0.252

Question: What about the relative viability (BEN; first compound 2.53 µM) of the same compound?
Answer: 0.261

Question: What about the relative viability (HARA; first compound 0.08 µM) of the same compound?
Answer: 0.451

Question: What about the relative viability (HARA; first compound 0.253 µM) of the same compound?
Answer: 0.413

Question: And the relative viability (HARA; first compound 0.8 µM)?
Answer: 0.477

Question: And the relative viability (HARA; first compound 2.53 µM)?
Answer: 0.412

Question: What about the relative viability (NCI-H1395; first compound 0.08 µM) of the same compound?
Answer: 0.483

Question: What about the relative viability (NCI-H1395; first compound 0.253 µM) of the same compound?
Answer: 0.424

Question: And the relative viability (NCI-H1395; first compound 0.8 µM)?
Answer: 0.45

Question: And the relative viability (NCI-H1395; first compound 2.53 µM)?
Answer: 0.431

Question: And the relative viability (NCI-H2170; first compound 0.08 µM)?
Answer: 0.422

Question: And the relative viability (NCI-H2170; first compound 0.253 µM)?
Answer: 0.351

Question: And the relative viability (NCI-H2170; first compound 0.8 µM)?
Answer: 0.412

Question: What about the relative viability (NCI-H2170; first compound 2.53 µM) of the same compound?
Answer: 0.348

Question: And the relative viability (NCI-H1944; first compound 0.08 µM)?
Answer: 0.203

Question: And the relative viability (NCI-H1944; first compound 0.8 µM)?
Answer: 0.221

Question: And the relative viability (NCI-H1944; first compound 2.53 µM)?
Answer: 0.195

Question: What about the relative viability (NCI-H650; first compound 0.08 µM) of the same compound?
Answer: 0.468

Question: And the relative viability (NCI-H650; first compound 0.253 µM)?
Answer: 0.438

Question: What about the relative viability (NCI-H650; first compound 0.8 µM) of the same compound?
Answer: 0.489

Question: What about the relative viability (NCI-H650; first compound 2.53 µM) of the same compound?
Answer: 0.417

Question: And the relative viability (A-427; first compound 0.08 µM)?
Answer: 0.307

Question: And the relative viability (A-427; first compound 0.253 µM)?
Answer: 0.327

Question: What about the relative viability (A-427; first compound 0.8 µM) of the same compound?
Answer: 0.378

Question: And the relative viability (A-427; first compound 2.53 µM)?
Answer: 0.342

Question: What about the relative viability (SK-LU-1; first compound 0.08 µM) of the same compound?
Answer: 0.649

Question: What about the relative viability (SK-LU-1; first compound 0.253 µM) of the same compound?
Answer: 0.533

Question: What about the relative viability (SK-LU-1; first compound 0.8 µM) of the same compound?
Answer: 0.576

Question: And the relative viability (SK-LU-1; first compound 2.53 µM)?
Answer: 0.557

Question: And the relative viability (NCI-H1793; first compound 0.08 µM)?
Answer: 0.397

Question: What about the relative viability (NCI-H1793; first compound 0.253 µM) of the same compound?
Answer: 0.333

Question: What about the relative viability (NCI-H1793; first compound 0.8 µM) of the same compound?
Answer: 0.355

Question: And the relative viability (NCI-H1793; first compound 2.53 µM)?
Answer: 0.375

Question: What about the relative viability (NCI-H2023; first compound 0.08 µM) of the same compound?
Answer: 0.436

Question: And the relative viability (NCI-H2023; first compound 0.253 µM)?
Answer: 0.413

Question: And the relative viability (NCI-H2023; first compound 0.8 µM)?
Answer: 0.422

Question: And the relative viability (NCI-H2023; first compound 2.53 µM)?
Answer: 0.33

Question: What about the relative viability (NCI-H1666; first compound 0.08 µM) of the same compound?
Answer: 0.548

Question: And the relative viability (NCI-H1666; first compound 0.253 µM)?
Answer: 0.563

Question: What about the relative viability (NCI-H1666; first compound 0.8 µM) of the same compound?
Answer: 0.553

Question: And the relative viability (NCI-H1666; first compound 2.53 µM)?
Answer: 0.572

Question: What about the relative viability (LXF-289; first compound 0.08 µM) of the same compound?
Answer: 0.508

Question: And the relative viability (LXF-289; first compound 0.253 µM)?
Answer: 0.482

Question: And the relative viability (LXF-289; first compound 0.8 µM)?
Answer: 0.536

Question: What about the relative viability (LXF-289; first compound 2.53 µM) of the same compound?
Answer: 0.503
